Assay results from PubChem BioAssay AID179 (DTP/NCI, 2004).
The source made the active and inactive calls.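 How the source made its calls: active means compounds giving half or more protection of infected cells from virus-caused growth loss, again on retest; inactive means the rest.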

Tested on: CEM cells HIV-1 protection, formazan growth assay
Assay: NCI AIDS Antiviral Assay
Conditions: for IC50: measured here: growth of uninfected CEM cells
Method in brief: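 Human CEM cells, uninfected and HIV-1-infected, received five drug concentrations, and growth was read by soluble formazan assay. Compounds giving at least 50% protection were retested; reproducible 100% protection defined confirmed active.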

Row | SMILES | EC50 [µM] | IC50 [µM] | outcome
1 | O=[N+]([O-])c1ccc(Sc2c3ccccc3nc3cc(Cl)ccc23)cc1 | > 3.98 | > 3.98 | –
2 | CCOC(=O)C(C)C(CCC#N)(C(=O)OCC)C(=O)OCC (stereo not given) | > 200 | > 200 | –
3 | Cc1cc2nc3[nH]c4ccccc4c3nc2cc1C | > 20.9 | > 20.9 | –
4 | CC1(C)C2CC(=O)C1(C)C(OCc1ccccc1)C2Br (stereo not given) | > 200 | > 100 | –
5 | Cn1c(=O)c2c(nc(N/N=c3\scc(-c4ccc(Cl)cc4)n3Cc3ccccc3)n2C)n(C)c1=O | > 200 | 10.7 | –
6 | COc1ccc2cc1Oc1ccc(cc1)CC1c3cc4c(cc3CCN1C)Oc1c(OC)cc3c(c1O4)C(C2)N(C)CC3 (stereo not given) | – | – | inactive
7 | O=C(CN1C(=O)CC(c2ccccc2)(c2ccccc2)C1=O)N1CCN(CCO)CC1 | > 200 | 151 | –
8 | CCC1CN2CCc3cc(OC)c(OC)cc3C2CC1CC1c2cc(OC)c(OC)cc2CCN1C(=O)C1CCCN1C(=O)OCc1ccccc1 (stereo not given) | – | – | inactive
9 | Oc1ccc(I)c2cccnc12 | > 182 | 2.19 | –
10 | CC1OC(OC23C(=O)CC(C)(O)CC2(O)C=CC2=C3C(=O)c3ccc(C4CC(OC5CCC(OC6CC(O)C(O)C(C)O6)C(C)O5)C(O)C(C)O4)c(O)c3C2=O)CCC1O (stereo not given) | > 295 | 4.9 | –
11 | COc1ccc(-c2nc3c(=O)n(C)c(=O)n(C)c3nc2-c2ccc(OC)cc2)cc1 | > 200 | 195 | –
12 | COc1cc(OC)c(C(=O)CC(=O)c2cc(OC)c(OC)c(OC)c2OC)cc1OC | > 575 | 479 | –
13 | COc1ccccc1Cn1nc(OC)c2cc([N+](=O)[O-])ccc21 | > 151 | > 151 | –
14 | CCOC(=O)Nn1c(C)cc(C(=O)OC)c1C | – | – | inactive
15 | c1ccc(CCN(Cc2nc3ccccc3[nH]2)Cc2nc3ccccc3[nH]2)cc1 | > 200 | 10.5 | –
16 | CC(C)(C)CS(=O)(=O)O.[Ag] | > 200 | 10.5 | –
17 | O=C(C/C(CCC(=O)N(Cc1ccccc1)Cc1ccccc1)=N/Nc1ccc([N+](=O)[O-])cc1[N+](=O)[O-])c1ccccc1 | – | – | inactive
18 | CN(C)c1ccc(/C=C(\C#N)c2ccc(F)cc2)cc1 | > 20 | 1.07 | –
19 | Cc1cn(Cc2ccccc2CCO)c(=O)[nH]c1=O | 191 | 479 | –
20 | CCC(=O)C(CCN1CCC(N2C(=O)C(CCC#N)c3ccccc32)CC1)(c1ccccc1)c1ccccc1 (stereo not given) | > 200 | 28.8 | –

Row | SMILES | EC50 [µM] | IC50 [µM] | outcome
21 | CN1C2CCC1CC(O)C2 (stereo not given) | > 1780 | > 1780 | –
22 | O=C(NCCCCCCNC(=O)NCc1ccco1)NCc1ccco1 | > 14.5 | > 14.5 | –
23 | O=C1NC2(CCNCC2)Oc2ccccc21 | > 200 | > 200 | –
24 | O=C1c2ccc(O)c(O)c2C(=O)c2c(O)ccc(O)c21 | > 63.1 | 11.7 | –
25 | O=[N+]([O-])c1ccc(/C=c2\sc3scc(-c4ccc([N+](=O)[O-])cc4)[n+]3\c2=C/c2ccc([N+](=O)[O-])cc2)cc1 | > 200 | 97.7 | –
26 | c1scc2c1COCCOCCOCCOCCOCCOC2 | > 724 | 646 | –
27 | CCCc1cc(=O)oc2c3c(cc(OC(C)CC)c12)O[C@H](C)[C@@H](C)C3=O (stereo not given in full) | > 60.3 | 14.1 | –
28 | COc1ccc(/C=N/NC(=O)c2ccccc2Nc2ccccc2C(=O)N/N=C/c2ccc(OC)cc2)cc1 | > 102 | 85.1 | –
29 | O=C(CCC(=O)Nc1ccc(Cl)c(Cl)c1)CC(=O)c1ccc(Br)cc1 | > 282 | > 282 | –
30 | CC(C)(C)OC(=O)N1CCC(NC(=O)NC2CCN(C(=O)OC(C)(C)C)CC2)CC1 | > 200 | > 200 | –
31 | [Ni+2].[O-]/C(=N\N=C\c1ccccn1)c1ccccc1O.[O-]/C(=N\N=C\c1ccccn1)c1ccccc1O | > 200 | 6.17 | –
32 | O=S1(=O)C[C@@H](O)[C@H](O)CS1 | 16.2 | 166 | –
33 | O=C(N/C(=C\c1ccc([N+](=O)[O-])cc1)c1nc2ccccc2s1)c1ccccc1 | > 32.4 | > 32.4 | –
34 | CC1(C)C(=NNC(=S)NN)C(C)(C)C1=NNC(=S)NN | > 794 | 151 | –
35 | COc1ccc(NC(=O)C(C#N)=C(SC)SC)cc1 | > 200 | 7.94 | –
36 | NC(=O)Nn1c2c(c3c1CCCC3)CCCC2 | – | – | inactive
37 | CC1SC2(CC3CCC2(C)C3(C)C)OC1=O (stereo not given) | > 20.9 | > 20.9 | –
38 | COc1ccc(/C=N\N2CC(=O)N3C4C=CC(CC4)N3C2=O)cc1 (stereo not given) | > 200 | > 200 | –
39 | O=c1[nH]c(=O)n(C2COC(CO)C2O)cc1F (stereo not given) | > 200 | 6.03 | –
40 | CC(/C=C/c1ccccc1)=N\N=C(C)\C=C\c1ccccc1 | > 13.2 | > 13.2 | –
